# ChEMBL document CHEMBL1201862, “PubChem BioAssay data set” (2004)
# Structures can show the parent of a compound that is named as a salt. Calls of active or inactive are those of the source.
# Tests used:
# [1] = Late stage counterscreen for inhibitors of Trypanosoma brucei methionyl tRNA synthetase (MetRS): Luminescence-based cell-based high throughput dose response assay to identify compounds that are cytotoxic to Jurkat human T lymphocyte cells.; assay type: functional
# cells [2] = test: cells
# [3] = target: T1, Oxysterols receptor LXR-beta (Homo sapiens, UniProt P55055); assay type: functional, cell-based
# T1 sequence (P55055 whole entry): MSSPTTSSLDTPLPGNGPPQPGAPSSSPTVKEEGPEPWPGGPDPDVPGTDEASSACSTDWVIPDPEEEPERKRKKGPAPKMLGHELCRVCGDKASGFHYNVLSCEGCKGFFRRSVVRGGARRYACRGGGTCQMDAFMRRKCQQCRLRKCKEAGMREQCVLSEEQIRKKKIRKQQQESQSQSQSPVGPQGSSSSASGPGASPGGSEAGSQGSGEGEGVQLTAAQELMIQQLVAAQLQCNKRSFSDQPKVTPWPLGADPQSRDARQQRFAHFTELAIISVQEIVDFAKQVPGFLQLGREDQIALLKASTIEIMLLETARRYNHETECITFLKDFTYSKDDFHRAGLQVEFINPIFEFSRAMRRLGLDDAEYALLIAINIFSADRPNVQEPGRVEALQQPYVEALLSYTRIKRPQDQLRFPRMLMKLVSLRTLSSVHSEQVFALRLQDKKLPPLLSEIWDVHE
# [4] = target: T2, Ubiquitin-conjugating enzyme E2 N (Homo sapiens, UniProt P61088); assay type: functional;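 also: Dose-response confirmation in a TR-FRET assay detecting UBC13-driven polyubiquitin chain formation, inhibition measured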
# T2 sequence (P61088 whole entry): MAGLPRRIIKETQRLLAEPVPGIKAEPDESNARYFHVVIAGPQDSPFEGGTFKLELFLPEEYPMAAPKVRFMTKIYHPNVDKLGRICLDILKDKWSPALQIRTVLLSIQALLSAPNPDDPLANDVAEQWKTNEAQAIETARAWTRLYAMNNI
# Paired box protein Pax-8 = Paired box protein Pax-8 (Homo sapiens, UniProt Q06710); test: PAX8 transcriptional activity inhibition in RMG-I – RMG-I cells, luciferase, cherry-pick, dose response (AID 687027); assay type: functional, cell-based;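 also: luciferase reporter driven by Pax8 target thyroperoxidase promoter measured by SteadyGlo luminescence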
# [5] = general cell-killing toxicity readout – plate reader, dry powder samples, cytotoxicity control for PAX8 inhibitor project, dose response (AID 743021); assay type: functional, cell-based
# Major prion protein = Major prion protein (Homo sapiens, UniProt P04156); assay type: functional, cell-based
# cells [6] = test: cells; remark: listed apart in the source
# [7] = loss of viability in HepG2 cells – cell-based, CellTiter-Glo, cherry-picked, cytotoxicity control for Shn3 inhibitor project, dose response (AID 624134); assay type: functional
# [8] = Shn3 3'UTR reporter signal decrease – cell-based, Clone20 osteoblasts, firefly luciferase, cherry-pick, set 2, Schnurri-3 inhibitor project, dose response (AID 720490); assay type: functional;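 also: actives lower the luminescence signal as inhibitors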
# [9] = reduction of Shn3 3'UTR-driven luciferase in osteoblasts – cell-based, Clone20 osteoblasts, firefly luciferase, cherry-picked, dose response (AID 624132); assay type: functional;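 also: firefly luciferase luminescence from reporter carrying the Shn3 3'UTR in osteoblasts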
# [10] = non-specific 3'UTR reporter inhibition in Clone20-Shn3RL – cell-based, Renilla luciferase, cherry-picked, counter-screen for Shn3 inhibitor project, dose response (AID 624133); assay type: functional
# [11] = target: RNA-editing ligase 1, mitochondrial (Trypanosoma brucei brucei, UniProt P86926); test: inhibition of trypanosome RNA editing ligase – biochemical, fluorescence, Trypanosoma brucei, dose response (AID 1117295); assay type: functional
# Kallikrein-7 = Kallikrein-7 (Homo sapiens, UniProt P49862); test: Fluorescence Intensity-based biochemical primary high throughput dose response assay to identify activators of kallikrein-7 (K7) zymogen.
# [12] = target: T1, Oxysterols receptor LXR-beta; assay type: functional, cell-based; remark: listed apart in the source
# [13] = target: Luciferin 4-monooxygenase (Photinus pyralis, UniProt P08659); test: inhibition of purified Photinus pyralis luciferase – biochemical, luminescence, dose response (AID 1891)
# Protein skinhead-1 = target: T3, Protein skinhead-1 (Caenorhabditis elegans, UniProt P34707); assay type: functional
# T3 sequence (P34707 whole entry): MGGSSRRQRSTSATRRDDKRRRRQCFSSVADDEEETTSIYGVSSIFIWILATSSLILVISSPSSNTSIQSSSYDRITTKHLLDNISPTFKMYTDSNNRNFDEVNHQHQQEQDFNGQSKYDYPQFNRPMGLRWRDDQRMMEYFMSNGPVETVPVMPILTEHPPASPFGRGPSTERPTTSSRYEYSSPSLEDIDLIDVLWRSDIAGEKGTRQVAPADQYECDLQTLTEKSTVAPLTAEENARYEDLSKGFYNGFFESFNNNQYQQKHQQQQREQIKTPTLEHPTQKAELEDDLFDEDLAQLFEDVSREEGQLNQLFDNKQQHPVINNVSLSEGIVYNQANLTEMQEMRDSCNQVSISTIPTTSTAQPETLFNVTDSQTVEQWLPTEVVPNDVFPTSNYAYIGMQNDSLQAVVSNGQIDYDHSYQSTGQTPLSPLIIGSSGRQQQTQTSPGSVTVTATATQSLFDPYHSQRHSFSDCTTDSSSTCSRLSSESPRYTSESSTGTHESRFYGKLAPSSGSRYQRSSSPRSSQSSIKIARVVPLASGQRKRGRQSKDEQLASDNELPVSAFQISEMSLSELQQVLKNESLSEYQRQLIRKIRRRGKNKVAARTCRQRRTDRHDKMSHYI
# [14] = Luminescence Cell-Based Dose Confirmation HTS to Identify Inhibitors of Platelet Dense Granule Release. [Related pubchem assays: 1663 (Primary HTS), 1678 (Summary of Project)]; assay type: functional
# [15] = IC50 of insulin release inhibition, rat insulinoma INS-1E line, 5 mM glucose, cell-based (AID 1117331); assay type: functional
# [16] = MITF Orthogonal Assay: SK-MEL-5 CTG Assay Measured in Cell-Based System Using Plate Reader - 2084-02_Inhibitor_Dose_DryPowder_Activity_Set7.; assay type: functional
# [17] = MITF: Counter assay: A375 proliferation Measured in Cell-Based System Using Plate Reader - 2084-03_Inhibitor_Dose_DryPowder_Activity_Set8.; assay type: functional; conditions: A-375
# [18] = OVCAR8 cell viability loss – plate reader, dry powder samples, PAX8 project, dose response (AID 743197); assay type: functional, cell-based; conditions: OVCAR-8
# [19] = OVCAR-3 cell viability loss – plate reader, dry powder samples, PAX8 inhibitor project, dose response (AID 743044); assay type: functional, cell-based
# [20] = IGROV1 cell killing – plate reader, dry powder samples, PAX8 inhibitor project, dose response (AID 743043); assay type: functional, cell-based; conditions: IGROV-1
# [21] = target: Endoplasmic reticulum aminopeptidase 1 (Homo sapiens, UniProt Q9NZ08); test: inhibition of human ERAP1 enzyme activity – biochemical, cherry-pick, set 2, plate reader, dose response (AID 743314)
# [22] = target: T4, Methionyl-tRNA synthetase, putative (Trypanosoma brucei brucei, UniProt Q38C91); assay type: functional, Trypanosoma brucei brucei strain 927/4 GUTat10.1
# T4 sequence (Q38C91 whole entry): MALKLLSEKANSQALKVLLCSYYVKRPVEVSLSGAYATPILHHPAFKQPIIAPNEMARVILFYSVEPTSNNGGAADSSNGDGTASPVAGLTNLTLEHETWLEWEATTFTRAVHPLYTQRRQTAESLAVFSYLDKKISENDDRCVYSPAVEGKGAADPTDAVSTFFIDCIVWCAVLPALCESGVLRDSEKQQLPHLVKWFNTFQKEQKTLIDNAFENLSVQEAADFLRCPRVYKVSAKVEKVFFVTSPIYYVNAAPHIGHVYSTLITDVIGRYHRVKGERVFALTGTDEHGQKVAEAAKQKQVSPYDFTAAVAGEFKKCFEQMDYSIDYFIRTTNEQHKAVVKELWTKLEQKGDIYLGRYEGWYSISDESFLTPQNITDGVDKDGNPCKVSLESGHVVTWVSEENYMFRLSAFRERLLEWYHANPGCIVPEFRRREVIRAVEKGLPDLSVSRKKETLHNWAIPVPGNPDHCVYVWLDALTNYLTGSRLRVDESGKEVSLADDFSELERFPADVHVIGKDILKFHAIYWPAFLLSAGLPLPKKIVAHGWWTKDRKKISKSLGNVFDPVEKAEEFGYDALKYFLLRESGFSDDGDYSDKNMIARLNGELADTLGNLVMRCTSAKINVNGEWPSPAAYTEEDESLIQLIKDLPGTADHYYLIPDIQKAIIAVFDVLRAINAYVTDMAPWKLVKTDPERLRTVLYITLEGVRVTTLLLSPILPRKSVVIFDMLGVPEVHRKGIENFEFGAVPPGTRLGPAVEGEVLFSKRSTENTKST
# [23] = Counterscreen for inhibitors of Trypanosoma brucei methionyl tRNA synthetase (MetRS): Luminescence-based cell-based high throughput dose response assay to identify compounds that are cytotoxic to Jurkat human T lymphocyte cells.; assay type: functional
# [24] = target: T4, Methionyl-tRNA synthetase, putative; assay type: functional, Trypanosoma brucei brucei strain 927/4 GUTat10.1; remark: listed apart in the source
# [25] = target: T5, Mannose-6-phosphate isomerase (Homo sapiens, UniProt P34949); test: MPI inhibition at elevated mannose 6-phosphate – biochemical, fluorescence intensity, high mannose 6-phosphate, primary screen (AID 1220)
# T5 sequence (P34949 whole entry): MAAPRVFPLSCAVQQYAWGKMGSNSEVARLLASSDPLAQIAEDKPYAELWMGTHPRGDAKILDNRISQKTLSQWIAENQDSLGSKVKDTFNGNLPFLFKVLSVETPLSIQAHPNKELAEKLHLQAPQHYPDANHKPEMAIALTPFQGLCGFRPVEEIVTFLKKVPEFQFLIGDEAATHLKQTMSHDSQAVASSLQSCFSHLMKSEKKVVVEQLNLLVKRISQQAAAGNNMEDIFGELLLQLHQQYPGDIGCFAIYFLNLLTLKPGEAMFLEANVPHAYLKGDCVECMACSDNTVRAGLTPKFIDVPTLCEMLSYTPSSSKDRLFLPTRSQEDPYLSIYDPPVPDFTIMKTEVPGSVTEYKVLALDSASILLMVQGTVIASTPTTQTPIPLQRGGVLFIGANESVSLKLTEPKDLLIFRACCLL
# [26] = target: Tyrosyl-DNA phosphodiesterase 2 (Homo sapiens, UniProt O95551); test: potency against TDP2 phosphodiesterase activity – biochemical, epi absorbance, IC50, dose response (AID 743297)
# [27] = target: Induced myeloid leukemia cell differentiation protein Mcl-1 (Homo sapiens, UniProt Q07820); assay type: functional
# [28] = target: T6, Small ubiquitin-related modifier 1 (Homo sapiens, UniProt P63165); test: SUMO1 protein interaction blockers, potency – biochemical, fluorescence polarization, uHTS hits, dose response (AID 624382); assay type: functional; conditions: read-out: IC50_Mean
# [29] = target: T6, Small ubiquitin-related modifier 1; test: SUMO1 protein-protein binding blockers, potency – biochemical, FRET, dose response (AID 624383); assay type: functional; conditions: read-out: IC50_Mean
smiles,measurement,setting,value
O=C(NCc1nc2ccccc2[nH]1)C1=C[C@H](c2ccccc2)C[C@H](OCc2ccc(CO)cc2)O1,IC50,[1],> 83.3 µM (inactive)
CCOC(=O)c1cc(-c2cccc(O)c2)oc1C,EC50,cells [2],> 67.5 µM (inactive)
same,EC50,[3],> 67.5 µM (inactive)
CCC[C@@H](CN[C@@H](CNC)[C@H](C)CC)NCC1CCC(C(C)(C)C)CC1 (stereo partly specified),IC50,[4],> 20 µM (inactive)
same,AC50,Paired box protein Pax-8,14.4 µM (active)
same,AC50,[5],37.7 µM (active)
COc1ccccc1Cn1c(=S)[nH]c2ccccc2c1=O,IC50,Major prion protein,3.49 µM (active)
same,IC50,cells [6],> 138 µM (inactive)
COc1cccc(-n2c(C)nc3c(cnn3-c3ccc(Cl)cc3)c2=O)c1,AC50,[7],61.4 µM (active)
same,AC50,[8],2.14 µM (active)
same,AC50,[9],0.391 µM (active)
same,AC50,[10],2.98 µM (active)
O=C(O)CSc1ccnc2cc(Cl)ccc12,IC50,Major prion protein,4.04 µM (active)
same,IC50,cells [6],> 138 µM (inactive)
CCCCCCCN1C(Nc2ccccc2)=NC[C@@H]1CC(C)C,IC50,[11],> 96.6 µM (inactive)
Cc1cccn2c(=O)c3cc(C(=O)N4CCOCC4)n(C)c3nc12,EC50,Kallikrein-7,> 2.58 µM (active)
COc1cccc(-c2noc(-c3cccs3)n2)c1,EC50,[12],> 67.6 µM (inactive)
same,EC50,[13],7.26 µM (active)
same,IC50,Protein skinhead-1,13.7 µM (active)
same,EC50,[14],> 112 µM (not active)
C[C@@H](C1=C(CCN(C)C)Cc2ccccc21)c1ccccn1,IC50,[15],8.41 µM (inactive)
CCN1CCCC(OC(=O)C(c2ccccc2)c2ccccc2)C1 (stereo unspecified) [PIPERIDOLATE HYDROCHLORIDE],IC50,[15],18.2 µM (inactive)
COc1ccc(NC2=CC(=O)c3ccccc3C2=O)cc1,AC50,[16],0.838 µM (active)
same,AC50,[17],> 70 µM (inactive)
C[C@@H]1CN([C@H](C)CO)C(=O)c2cc(NC(=O)CCC(F)(F)F)ccc2O[C@@H](C)CCCCO[C@@H]1CN(C)Cc1ccc(Cl)c(Cl)c1,AC50,[18],61 µM (active)
same,AC50,[19],33.3 µM (active)
same,AC50,[20],45.7 µM (active)
same,AC50,Paired box protein Pax-8,7.47 µM (active)
CCN(CC)Cc1c(O)ccc2cc(-c3nc4ccccc4n3C)c(=O)oc12,AC50,[21],1.8 µM (active)
COc1ccc(OCC(O)CNC(=O)Nc2ccc(Cl)cc2)cc1 (stereo unspecified),IC50,[22],4.39 µM (active)
same,IC50,[23],83.3 µM (inactive)
same,IC50,[1],> 83.3 µM (inactive)
same,IC50,[24],4.66 µM (active)
Nn1cnnc1N/N=C\c1ccc(-c2ccccc2[N+](=O)[O-])o1,IC50,[25],> 50 µM (not active)
same,IC50,[26],> 128 µM (inactive)
Cc1ccc2c(c1)N=C(c1ccccc1)CC(C(Cl)Cl)=N2,EC50,[12],> 67.5 µM (inactive)
O=C(CSc1nnc(-c2ccco2)c(-c2ccco2)n1)c1ccccc1,IC50,[27],3.19 µM (active)
same,IC50,[11],> 96.6 µM (inactive)
O=C(Cc1cc(=O)oc2cc(O)ccc12)NN=Cc1ccc(N(CCCl)CCCl)cc1,IC50,[28],> 66.6 µM (inactive)
same,IC50,[29],8.3 µM (active)
same,EC50,Kallikrein-7,> 23.2 µM (inactive)
